The results in this text go back to patent US10414775B2 (Merck Sharp & Dohme Corp., priority 2016, dated 2019).

The series has as its target T1, Human CYP8B1 (Homo sapiens, UniProt Q9UNU6).
T1 construct: tissue Xenotech; host or cells: human liver microsomes
T1 sequence (Q9UNU6 1-501): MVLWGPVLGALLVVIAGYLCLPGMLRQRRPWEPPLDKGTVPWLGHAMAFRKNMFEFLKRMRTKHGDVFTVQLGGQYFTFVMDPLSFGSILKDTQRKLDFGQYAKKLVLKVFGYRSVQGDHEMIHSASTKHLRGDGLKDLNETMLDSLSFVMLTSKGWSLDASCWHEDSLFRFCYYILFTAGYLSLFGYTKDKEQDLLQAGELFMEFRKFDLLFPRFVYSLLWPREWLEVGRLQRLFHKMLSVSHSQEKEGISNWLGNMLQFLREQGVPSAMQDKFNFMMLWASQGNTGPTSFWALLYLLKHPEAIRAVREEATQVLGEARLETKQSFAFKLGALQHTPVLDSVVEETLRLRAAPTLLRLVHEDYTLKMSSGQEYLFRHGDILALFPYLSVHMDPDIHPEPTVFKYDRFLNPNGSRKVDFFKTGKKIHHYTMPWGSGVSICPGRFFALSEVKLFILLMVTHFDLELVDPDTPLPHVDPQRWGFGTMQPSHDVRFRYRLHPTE
In words: Human Cyp8B1 Liver Microsome Assay. The class given is biochemical. Particulars: human liver microsomes; substrate 7α-hydroxy-4-cholesten-3-one, NADPH; 30 min pre-incubation, 45 min reaction; RapidFire MS readout. The procedure:
Human Cyp8B1 Liver Microsome Assay To a 384 well polypropylene plate (Corning 3656), 250 nl of inhibitor in 100% DMSO (1.25% final DMSO concentration) was pre-plated using an Echo liquid handler (Labcyte Inc.). Human liver microsomes (Xenotech) were diluted in of 0.1 M phosphate buffer, pH 7.4, at a concentration of 65 μg/ml and 15 μL was added to the 384 well plate. The plates were incubated at ambient room temperature for 30 minutes. After pre-incubation with inhibitor, the reaction was initiated by adding 5 μl of substrate solution (4.0 μM 7α-hydroxy-4-cholesten-3-one(Toronto Research Chemicals), 2 mM of NADPH (Sigma), 0.1 M phosphate buffer (pH 7.4). The reaction was carried out for 45 minutes at ambient room temperature and was quenched by the addition of 50 μl of acetonitrile+0.1% vol/vol formic acid (FA)+300 nM 7α-hydroxy-4-cholesten-3-one-d7 (Toronto Research Chemicals). The plates were sealed and centrifuged at 3000 rpm for 5 minutes. Plates were loaded onto the Agilent RapidFire RF300 HTMS system, wherein samples were sipped for 600 ms, and the sip sensor detection signals the diversion of sample from the loop onto a C4 solid phase extraction (SPE) cartridge, where salts are washed off for 2500 ms with a mobile phase of water with 0.1% vol/vol FA at a flow rate of 1.5 ml/min. The column path is switched, and the sample is eluted off the cartridge and flowed into the mass spectrometer for 3000 ms with a mobile phase of acetonitrile and 0.1% vol/vol FA at a flow rate of 1.25 ml/min. The aspirator tip was washed separately with water and acetonitrile between sample aspirations (each for 600 ms) to minimize carryover contamination. Mass spectrometry was carried out using a Sciex API4000 triple quadrupole mass spectrometer (Applied Biosystems, Concord, ON, Canada) equipped with electrospray ionization (ESI) operated in the positive-ion mode. The product 7α, 12α-dihydroxy-4-cholesten-3-one and internal standard 7α-hydroxy-4-cholsten-3-one-d7 were detected using multiple reaction monitoring (MRM) with Q1/Q3 transitions at m/z 417.3 to 381.3 and m/z 408.3 to 390.3, respectively, with a dwell time of 100 ms and a collision energy of 24 V for each transition. The mass spectrometer used an ESI voltage of 5000 V and a source temperature of 650° C. Extracted ion chromatograms for each transition were integrated and processed using the RapidFire Integrator software. The data for each well were normalized by monitoring product conversion with the ratio of AUCproduct/(AUCinternal standard). The data was then fitted to a four parameter logistic fit using ActivityBase Software to calculate an IC50 of the inhibitor.
(In general: Microsomes from liver hold many membrane-bound enzymes, among them those of drug oxidation.)

pIC50: −log10 of the molar value. Structures can show the parent of a compound that is named as a salt.

Broadly, the pIC50 is the IC50 on a negative log10 scale, so that one unit is a factor of ten. Read a low pIC50 as a large IC50. `Cc1cc(N2CC[C@H](C(=O)N3CCn4c(nnc4C(F)(F)F)C3)[C@H](C)C2)c2ccc(Cl)cc2n1` [Example 19, 7-chloro-2-methyl-4-[(3S,4S)-3-methyl-4-{[3-(trifluoromethyl)-5,6-dihydro[1,2,4]tria-zolo[4,3-a]pyrazin-7(8H)-yl]carbonyl}piper-idin-1-yl]quinolinium trifluoroacetate] gave a negative-log IC50 (pIC50) of 6.97.

`C[C@@H]1CN(c2ccnc3c(F)c(Cl)ccc23)CC[C@@H]1C(=O)N1CCn2c(nnc2C(F)(F)F)C1` [Example 20, 7-chloro-8-fluoro-4-[(3S,4S)-3-methyl-4-{[3-(trifluoromethyl)-5,6-dihydro[1,2,4]tria-zolo[4,3-a]pyrazin-7(8H)-yl]carbonyl}piper-idin-1-yl]quinolinium trifluoroacetate] showed a negative-log IC50 (pIC50) of 7.85.

For `C[C@@H]1CN(c2ccnc3cc(Cl)ccc23)CC[C@@H]1C(=O)N1CCn2c(nnc2C(F)(F)F)C1` [Example 21, [(3S,4S)-1-(7-chloroquinolin-4-yl)-3-methylpiperidin-4-yl][3-(trifluoromethyl)-5,6-dihydro[1,2,4]tria-zolo[4,3-a]pyrazin-7(8H)-yl]methanone], the pIC50 was 8.20.

Regarding `C[C@@H]1CN(c2ccnc3cc(F)ccc23)CC[C@@H]1C(=O)N1CCn2c(nnc2C(F)(F)F)C1` [Example 22, [(3S,4S)-1-(7-fluoroquinolin-4-yl)-3-methylpiperidin-4-yl][3-(trifluoromethyl)-5,6-dihydro[1,2,4]tria-zolo[4,3-a]pyrazin-7(8H)-yl]methanone], the negative-log IC50 (pIC50) is 7.72.

Molecule `COc1ccc2c(N3CC[C@H](C(=O)N4CCn5c(nnc5C(F)(F)F)C4)[C@H](C)C3)ccnc2c1` [Example 23, [(3S,4S)-1-(7-methoxyquinolin-4-yl)-3-methylpiperidin-4-yl][3-(trifluoromethyl)-5,6-dihydro[1,2,4]tria-zolo[4,3-a]pyrazin-7(8H)-yl]methanone] showed a pIC50 of 6.63.

`C[C@@H]1CN(c2ccnc3cc(C#N)ccc23)CC[C@@H]1C(=O)N1CCn2c(nnc2C(F)(F)F)C1` [Example 24, 4-[(3S,4S)-3-methyl-4-{[3-(trifluoromethyl)-5,6-dihydro[1,2,4]tria-zolo[4,3-a]pyrazin-7(8H)-yl]carbonyl}piper-idin-1-yl]quinoline-7-carbonitrile] showed a negative logarithm of the IC50 (pIC50) of 8.08.

As for `COc1cnc2c(N3CC[C@H](C(=O)N4CCn5c(nnc5C(F)(F)F)C4)[C@H](C)C3)ccnc2c1` [Example 25, [(3S,4S)-1-(7-methoxy-1,5-naphthyridin-4-yl)-3-methylpiperidin-4-yl][3-(trifluoromethyl)-5,6-dihydro[1,2,4]tria-zolo[4,3-a]pyrazin-7(8H)-yl]methanone], the pIC50 is 6.51.

Molecule `COc1ccc2nccc(N3CC[C@H](C(=O)N4CCn5c(nnc5C(F)(F)F)C4)[C@H](C)C3)c2n1` [Example 26, [(3S,4S)-1-(6-methoxy-1,5-naphthyridin-4-yl)-3-methylpiperidin-4-yl][3-(trifluoromethyl)-5,6-dihydro[1,2,4]tria-zolo[4,3-a]pyrazin-7(8H)-yl]methanone] gave a negative-log IC50 (pIC50) of 7.74.

Molecule `Cc1ccc2c(N3CC[C@H](C(=O)N4CCn5c(nnc5C(F)(F)F)C4)[C@H](C)C3)ccnc2n1` [Example 27, [(3S,4S)-3-methyl-1-(7-methyl-1,8-naphthyridin-4-yl)piperidin-4-yl][3-(trifluoromethyl)-5,6-dihydro[1,2,4]tria-zolo[4,3-a]pyrazin-7(8H)-yl]methanone] had a negative-log IC50 (pIC50) of 5.17.

`C[C@@H]1CN(c2ccnc3cc(C4CC4)ccc23)CC[C@@H]1C(=O)N1CCn2c(nnc2C(F)(F)F)C1` [Example 28, 7-cyclopropyl-4-[(3S,4S)-3-methyl-4-{[3-(trifluoromethyl)-5,6-dihydro[1,2,4]tria-zolo[4,3-a]pyrazin-7(8H)-yl]carbonyl}piper-idin-1-yl]quinolinium chloride]: the pIC50 is 9.18.

Turning to `C[C@@H]1CN(c2ccnc3cc(OC(F)(F)F)ccc23)CC[C@@H]1C(=O)N1CCn2c(nnc2C(F)(F)F)C1` [Example 29, {(3S,4S)-3-methyl-1-(7-(trifluoromethoxy)quinolin-4-yl]piperidin-4-yl}[3-(trifluoromethyl)-5,6-dihydro[1,2,4]tria-zolo[4,3-a]pyrazin-7(8H)-yl]methanone], the pIC50 was 9.47.

In the case of `C[C@@H]1CN(c2ccnc3cc(OCc4ccccc4)ccc23)CC[C@@H]1C(=O)N1CCn2c(nnc2C(F)(F)F)C1` [Example 30], the negative-log IC50 (pIC50) is 8.41.

As for `C[C@@H]1CN(c2ccnc3nc(C(F)(F)F)ccc23)CC[C@@H]1C(=O)N1CCn2c(nnc2C(F)(F)F)C1` [Example 31, {(3S,4S)-3-methyl-1-[7-(trifluoromethyl)-1,8-naphthyridin-4-yl]piperidin-4-yl}[3-(trifluoromethyl)-5,6-dihydro[1,2,4]tria-zolo[4,3-a]pyrazin-7(8H)-yl]methanone], the pIC50 is 5.57.

`C[C@@H]1CN(c2ccnc3c(Cl)c(Cl)ccc23)CC[C@@H]1C(=O)N1CCn2c(nnc2C(F)(F)F)C1` [Example 32, ((3S,4S)-1-(7,8-dichloroquinolin-4-yl)-3-methylpiperidin-4-yl)(3-(trifluoromethyl)-5,6-dihydro-[1,2,4]triazolo[4,3-a]pyrazin-7(8H)-yl)methanone] gave a negative-log IC50 (pIC50) of 6.95.

For the molecule `C[C@@H]1CN(c2ccnc3cc(OC(F)F)ccc23)CC[C@@H]1C(=O)N1CCn2c(nnc2C(F)(F)F)C1` [Example 33, {(3S,4S)-1-[7-(difluoromethoxy)quinolin-4-yl]-3-methylpiperidin-4-yl}[3-(trifluoromethyl)-5,6-dihydro[1,2,4]triazolo[4,3-a]pyrazin-7(8H)-yl]methanone], the negative logarithm of the IC50 (pIC50) was 8.08.

Molecule `COc1ccc2c(N3CC[C@H](C(=O)N4CCn5c(nnc5C(F)(F)F)C4)[C@H](C)C3)c(C3CC3)cnc2c1` [Example 34, [(3S,4S)-1-(3-cyclopropyl-7-methoxyquinolin-4-yl)-3-methylpiperidin-4-yl][3-(trifluoromethyl)-5,6-dihydro[1,2,4]triazolo[4,3-a]pyrazin-7(8H)-yl]methanone] showed a pIC50 of 9.17.

On to `Cc1cnc2cc(C(F)(F)F)ccc2c1N1CC[C@H](C(=O)N2CCn3c(nnc3C(F)(F)F)C2)[C@H](C)C1` [Example 35, {(3S,4S)-3-methyl-1-[3-methyl-7-(trifluoromethyl)quinolin-4-yl]piperidin-4-yl}[3-(trifluoromethyl)-5,6-dihydro[1,2,4]triazolo[4,3-a]pyrazin-7(8H)-yl]methanone], for which the negative-log IC50 (pIC50) was 9.77.

On to `C[C@@H]1CN(c2c(Cl)cnc3cc(OC(F)(F)F)ccc23)CC[C@@H]1C(=O)N1CCn2c(nnc2C(F)(F)F)C1` [Example 36, {(3S,4S)-1-[3-chloro-7-(trifluoromethoxy)quinolin-4-yl]-3-methylpiperidin-4-yl}[3-(trifluoromethyl)-5,6-dihydro[1,2,4]triazolo[4,3-a]pyrazin-7(8H)-yl]methanone], for which the pIC50 is 9.46.

`C[C@@H]1CN(c2c(Cl)cnc3nc(C(F)(F)F)ccc23)CC[C@@H]1C(=O)N1CCn2c(nnc2C(F)(F)F)C1` [Example 37, {(3S,4S)-1-[3-chloro-7-(trifluoromethyl)-1,8-naphthyridin-4-yl]-3-methylpiperidin-4-yl}[3-(trifluoromethyl)-5,6-dihydro[1,2,4]triazolo[4,3-a]pyrazin-7(8H)-yl]methanone] showed a pIC50 of 8.89.

The molecule `C[C@@H]1CN(c2ccnc3cc(O)ccc23)CC[C@@H]1C(=O)N1CCn2c(nnc2C(F)(F)F)C1` [Example 38, [(3S,4S)-1-(7-hydroxyquinolin-4-yl)-3-methylpiperidin-4-yl][3-(trifluoromethyl)-5,6-dihydro[1,2,4]triazolo[4,3-a]pyrazin-7(8H)-yl]methanone] had a negative logarithm of the IC50 (pIC50) of 5.54.
